Data: patent US20050009732A1, “Method of treatment and agents useful for same” (Medvet Science Pty Ltd., priority 2003, published 2005)
Starred links: 1 amine or outer side, 2 acyl side, 3 side chain; linkers in the order of their positions; H or OH if unused. Positions of bridges follow the written chain, without caps; N, C: chain ends. Non-standard residues stand in square brackets, D forms with d. Residues, ends and D or L forms follow the SMILES beside them. Chains are numbered I, II in the order given. Actinocin(9to1) = Cc1c2oc3c(C)ccc(C(=O)[*:1])c3nc-2c(C(=O)[*:2])c(N)c1=O; NMeV = CN[C@H](C(=O)O)C(C)C; Sar = CNCC(=O)O

How the values were obtained:
Type in all cases: cell-based, human
[1] = test system: intracellular Ca2+ mobilization in MCF-7 cells; assay: Measurement of [Ca2+]i in Fluo-3 loaded MCF-7 cells; conditions: for effect on E2-induced rise of [Ca2+]i: pretreatment then E2 (DMS 10 μM 30 min; ICI 10 μM; BHQ 100 nM; EGTA 2 mM; 2-APB 75 μM); for effect on [Ca2+]i when added alone: S1P 100 nM, E2-BSA 1 μM
Description: The fluorescence of the cells was monitored at an excitation wavelength of 490 nm and an emission wavelength of 525 nm. Each recording was calibrated by determining the maximal uptake of calcium (Fmax) in the presence of 0.1% Triton X as well as the level of autofluorescence (Fmin), after quenching Fluo-3/AM fluorescence with 1 mM Mn2^+.

[2] = test system: SK activity in MCF-7 cells; assay: SK activity assay in MCF-7 cells; conditions: for effect on E2-mediated SK activation: pretreatment (ICI 10 μM 1 h; PTX 50 ng/ml 16 h) then 10 nM E2
Description: (§1) Briefly, after desired treatments the cells were washed with ice-cold PBS, scraped from the culture dishes and homogenized in lysis buffer containing 20 mM Tris (pH 7.4), 20% glycerol, 1 mM DTT, 1 mM EDTA, 10 μM MgCl2, 1 mM Na3VO4, 15 mM NaF, 10 μg/ml leupeptin and aprotinin, 1 mM PMSF and 0.5 mM 4-deoxypyridoxine. After centrifugation at 13,000×g for 30 min, SK activity was measured by incubating the cytosolic fraction with 5 μM sphingosine dissolved in 0.1% Triton X-100 and [γ^32P]ATP (1 mM, 0.5 mCi/ml) for 30 min at 37° C. as described previously (Pitson et al, 2000, supra; Xia, P., 1998, supra). The enzyme activity was normalized by total protein concentration of each sample.

MCF-7 cells [3] = assay: Focus formation assay in MCF-7 cells; conditions: 10 nM E2, 10-day culture
Description: MCF-7 cells were seeded into 24-well plastic tissue culture plates at a density of 1×10^5 cells/ml/well, and maintained in phenol-red free media containing 10% FCS until the cells reached confluent. The cells were then refed at 24 h before first treatment with or without 10 nM E2 and then every 2-3 days thereafter with 1% FCS medium. After 5, 10 and 14 days the cultures were photographed and number of foci were counted. For colony assay, cells (1×10^4) suspended in 2 ml of 0.36% agar (Becton Dickinson, Sparks, MD) with phenol-red free growth medium were added on a base layer of 0.72% agar containing culture medium as described previously (Xia, P., Gamble, J. R., Wang, L., Pitson, S. M., Moretti, P. A., Wattenberg, B. W., D'andrea, R. J., and Vadas, M. A. (2000) Curr. Biol., 10: 1527-1530). After 14 days of incubation, the colonies were stained with MTT and counted. All experiments were done at least three times using triplicates per experimental point. Average was assessed by counting the number of colonies under low magnification (×20) at four points on each well.

[4] = test system: SK activity in MDA-MB-231 cells; assay: SK activity assay in MDA-MB-231 cells; conditions: 10 nM E2, 15 min or 6 hours
Description: as §1

[5] = test system: Erk1/2 phosphorylation in MCF-7 cells; assay: Erk1/2 phosphorylation by Western blotting in MCF-7 cells
Description: Cells were harvested and lysed by sonication in lysis buffer containing 50 mM Tris/HCl (pH 7.4), 10% glycerol, 0.5% Triton-X-100, 150 mM NaCl, 1 mM dithiothreitol, 2 mM Na3VO4, 10 mM NaF, 1 mM EDTA and protease inhibitors (Complete; Roche Molecular Biochemicals). Protein concentrations of the cell lysates were determined with a Bio-Rad Dc protein assay kit (Bio-Rad Laboratories, CA). Aliquots of cell lysates containing 30-50 μg of proteins were resolved by 12% SDS-PAGE and transferred to Hybond-P membranes (Amersham Biosciences, Inc.). The membranes were then probed with appropriate antibodies according to standard method as described previously (Pitson, S. M., 2000, supra). The immunocomplexes were detected with an enhanced chemiluminescence PLUS kit (Amersham Pharmacia Biosciences) and by using Typhoon 9410 Variable Mode Imager (Amersham Pharmacia Biotechnologies).

MCF-7 cells [6] = assay: Cell growth assay (MTS) in MCF-7 cells; conditions: 10 nM E2, in the absence of serum
Description: To assess cell proliferation, we used the CellTiter 96 AQueous proliferation assay (Promega Corp.) that is based on metabolic conversion of a tetrazolium compound MTS to a colored product by living cells as described in the manufacturer's protocols. Cells (4×10^3 cell/well) were seeded in 4 to 6 replicates into 96-well plates and incubated at 37° C. in 5% CO2 with or without E2 (10 nM) in phenol-red free media for a desired time period. The medium was changed every 2-3 days. The absorbance intensity of the MTS product is directly proportional to the number of viable cells in culture when cell number is between 2000 and 200 000, otherwise the exponential dependence was determined. Total cell numbers were calculated based on calibration curves.

4-hydroxytamoxifen [OH-Tam] was tested, and the “effect on E2-induced rise of [Ca2+]i” value [1] was “not prevented”.

With 17β-estrodiol [E2] the “SK activity after additional dose of E2” value ([2]; MCF-7 cells pretreated with E2 for 16 h, pulsed with additional 10 nM E2) was “additive increase”, the “prolonged effect on SK activity” value ([2]; MCF-7 cells, 10 nM E2, after 6 hours, remained more than 24 hours) was “significant increase” and the “maximum SK activity” value ([2]; MCF-7 cells, 10 nM E2, within 15 min) was 240±25 % of basal. For the same compound, the “concentration at which the E2-induced SK activity reaches a maximum” value ([2]; MCF-7 cells, increasing doses, 15 min) was 1 µM, the foci formation (MCF-7 cells [3]) was “able to form solid cell foci” and the “time to maximal level of [Ca2+]i” value ([1]; E2 1 nM) was 30 ± 10 s. For the same compound, the SK activity [4] was “No increased activity”, the “effect on Erk 1/2 activity” value ([5]; 10 nM E2) was “significant increase” and the “time of maximal Erk 1/2 activity” value ([5]; 10 nM E2, basal levels by 60 min) was ≤ 15 min. For the same compound, the “effect on cell growth” value (MCF-7 cells [6]) was “stimulated cell growth”.

17β-estrodiol-BSA [E2-BSA] was tested, and the “effect on [Ca2+]i when added alone” value [1] was “same extent as E2”.

In the case of `NCCOB(c1ccccc1)c1ccccc1` [2-APB, 2-Aminoethoxydiphenyl borate], the “effect on E2-induced rise of [Ca2+]i” value [1] is reported as “unable to effectively abolish”.

`CC(C)(C)c1cc(O)ccc1O` [BHQ, tert-butylhydroquinone] was tested, and the “effect on E2-induced rise of [Ca2+]i” value [1] was “strongly reduced”.

For `O=C(O)CN(CCOCCOCCN(CC(=O)O)CC(=O)O)CC(=O)O` [EGTA], the “effect on E2-induced rise of [Ca2+]i” value [1] was “slightly decreased”.

In the case of `C[C@]12CC[C@@H]3c4ccc(O)cc4C[C@@H](CCCCCCCCC[S+]([O-])CCCC(F)(F)C(F)(F)F)[C@H]3[C@@H]1CC[C@@H]2O` (stereo partly drawn) [ICI 182,780], the “effect on E2-mediated SK activation” value ([2]; MCF-7 cells) is reported as “no influence” and the “effect on E2-induced rise of [Ca2+]i” value [1] is reported as “not prevented”.

In the case of `COc1cccc(-c2cc(=O)c3ccccc3o2)c1N` [PD098095], the “effect on E2-promoted phosphorylation of Erk1/2” value ([5]; 100 μM pretreatment 30 min, 10 nM E2) is reported as “blocked”.

`CCCCCCCCCCCCCC(=O)O[C@@H]1[C@@H](C)[C@@]2(O)[C@@H](C=C(CO)C[C@]3(O)C(=O)C(C)=C[C@@H]23)[C@@H]2C(C)(C)[C@]12OC(C)=O` [PMA, phorbol 12-myristate 13-acetate] was tested, and the “increase in SK activity over basal levels” value ([2]; PMA 100 ng/ml, 30 min, SK and empty-vector transfected MCF-7 cells) was “approximately 2 fold”.

With `CCCCCCCCCCCCC/C=C/[C@@H](O)[C@@H](N)COP(=O)(O)O` [S1P, sphingosine-1-phosphate] the “effect on [Ca2+]i when added alone” value [1] was “resulted in an increase”.

`CC/C(=C(\c1ccccc1)c1ccc(OCCN(C)C)cc1)c1ccccc1` [Tamoxifen] was tested, and the “effect on E2-mediated SK activation” value ([2]; MCF-7 cells) was “no influence”.

For `Cc1c2oc3c(C)ccc(C(=O)N[C@@H]4C(=O)N[C@H](C(C)C)C(=O)N5CCC[C@H]5C(=O)N(C)CC(=O)N(C)[C@@H](C(C)C)C(=O)O[C@@H]4C)c3nc-2c(C(=O)N[C@@H]2C(=O)N[C@H](C(C)C)C(=O)N3CCC[C@H]3C(=O)N(C)CC(=O)N(C)[C@@H](C(C)C)C(=O)O[C@@H]2C)c(N)c1=O` [actinomycin D] (I: T[dV]P[Sar][NMeV] / II: T[dV]P[Sar][NMeV]; ester I:1-I:C, II:1-II:C; linker I:N-II:N via Actinocin(9to1)), the “effect on first peak of E2-induced SK activity” value ([2]; MCF-7 cells, 1 μM actinomycin D pretreatment 4 h, 10 nM E2) was “no overt effect” and the “effect on delayed E2-induced activation of SK” value ([2]; MCF-7 cells, 1 μM actinomycin D, 10 nM E2 prolonged time course) was “abrogated”.

pertussis toxin was tested, and the “effect on E2-mediated SK activation” value ([2]; MCF-7 cells) was “strongly abrogated”.
